# Measurements taken from PubChem BioAssay AID1259407 (Chemical Carcinogenesis Research Information System (CCRIS), 2018).
# Activity calls are given as the source filed them. No rule for the calls is given here.
# System: CCRIS mutagenicity, Ames/micronucleus/aberration tests
# Experiment: CCRIS mutagenicity studies
# [1] = Test System: AMES SALMONELLA TYPHIMURIUM, Strain/Indicator: TA98, Metabolic Activation: NONE, Method: PREINCUBATION
# [2] = Test System: AMES SALMONELLA TYPHIMURIUM, Strain/Indicator: TA100, Metabolic Activation: NONE, Method: PREINCUBATION
# [3] = Test System: AMES SALMONELLA TYPHIMURIUM, Strain/Indicator: TA100, Metabolic Activation: NONE, Method: STANDARD PLATE
# [4] = Test System: AMES SALMONELLA TYPHIMURIUM, Strain/Indicator: TA1535, Metabolic Activation: NONE, Method: STANDARD PLATE
structure (smiles),measurement,setting,value
Cc1ccccc1C(=O)Cl,mutagenic call,[1],inactive; negative
same,mutagenic call,"Test System: AMES SALMONELLA TYPHIMURIUM, Strain/Indicator: TA98, Metabolic Activation: RAT LIVER S-9, PCB, Method: PREINCUBATION",active; positive
same,mutagenic call,[2],inactive; negative
same,mutagenic call,"Test System: AMES SALMONELLA TYPHIMURIUM, Strain/Indicator: TA100, Metabolic Activation: RAT LIVER S-9, PCB, Method: PREINCUBATION",active; positive
same,mutagenic call,"Test System: AMES SALMONELLA TYPHIMURIUM, Strain/Indicator: TA104, Metabolic Activation: NONE, Method: PREINCUBATION",inactive; negative
same,mutagenic call,"Test System: AMES SALMONELLA TYPHIMURIUM, Strain/Indicator: TA104, Metabolic Activation: RAT LIVER S-9, PCB, Method: PREINCUBATION",active; positive
same,mutagenic call,"Test System: E.COLI, Strain/Indicator: WP2 UVRA, Metabolic Activation: NONE, Method: PREINCUBATION",active; positive
same,mutagenic call,"Test System: E.COLI, Strain/Indicator: WP2 UVRA, Metabolic Activation: RAT LIVER S-9, PCB, Method: PREINCUBATION",active; positive
COc1cc(Nc2c3ccccc3nc3ccccc23)ccc1NS(C)(=O)=O,mutagenic call,"Test System: MOUSE LYMPHOMA, Strain/Indicator: L5178Y (TK+/TK-), Metabolic Activation: NONE, Method: SUSPENSION/PLATE",active; positive
O=C(CCCN1CCC(O)(c2ccc(Cl)cc2)CC1)c1ccc(F)cc1,mutagenic call,"End Point: IN VITRO CHROMOSOMAL ABERRATIONS, Test System: HUMAN LYMPHOCYTES, Metabolic Activation: NONE",inactive; negative
same,mutagenic call,"End Point: IN VIVO CHROMOSOMAL ABERRATIONS, Test System: LYMPHOCYTES, Species: HUMAN, Strain/Sex: MALE, Route: ORAL",inactive; negative
same,mutagenic call,"Test System: AMES SALMONELLA TYPHIMURIUM, Strain/Indicator: TA98, Metabolic Activation: MOUSE, LIVER, S-9, AROCLOR 1254, Method: STANDARD PLATE",inactive; negative
same,mutagenic call,"Test System: AMES SALMONELLA TYPHIMURIUM, Strain/Indicator: TA98, Metabolic Activation: MOUSE, LIVER, S-9, Method: STANDARD PLATE",inactive; negative
same,mutagenic call,[1],inactive; negative
same,mutagenic call,"Test System: AMES SALMONELLA TYPHIMURIUM, Strain/Indicator: TA98, Metabolic Activation: NONE, Method: STANDARD PLATE",inactive; negative
same,mutagenic call,"Test System: AMES SALMONELLA TYPHIMURIUM, Strain/Indicator: TA98, Metabolic Activation: RAT, LIVER, S-9, AROCLOR 1254, Method: PREINCUBATION",inactive; negative
same,mutagenic call,"Test System: AMES SALMONELLA TYPHIMURIUM, Strain/Indicator: TA98, Metabolic Activation: RAT, LIVER, S-9, AROCLOR 1254, Method: STANDARD PLATE",inactive; negative
same,mutagenic call,"Test System: AMES SALMONELLA TYPHIMURIUM, Strain/Indicator: TA100, Metabolic Activation: MOUSE, LIVER, S-9, AROCLOR 1254, Method: STANDARD PLATE",inactive; negative
same,mutagenic call,"Test System: AMES SALMONELLA TYPHIMURIUM, Strain/Indicator: TA100, Metabolic Activation: MOUSE, LIVER, S-9, Method: STANDARD PLATE",inactive; negative
same,mutagenic call,[2],inactive; negative
same,mutagenic call,[3],inactive; negative
same,mutagenic call,"Test System: AMES SALMONELLA TYPHIMURIUM, Strain/Indicator: TA100, Metabolic Activation: RAT, LIVER, S-9, AROCLOR 1254, Method: PREINCUBATION",inactive; negative
same,mutagenic call,"Test System: AMES SALMONELLA TYPHIMURIUM, Strain/Indicator: TA100, Metabolic Activation: RAT, LIVER, S-9, AROCLOR 1254, Method: STANDARD PLATE",inactive; negative
same,mutagenic call,"Test System: AMES SALMONELLA TYPHIMURIUM, Strain/Indicator: TA1530, Metabolic Activation: MOUSE, LIVER, S-9, AROCLOR 1254, Method: STANDARD PLATE",inactive; negative
same,mutagenic call,"Test System: AMES SALMONELLA TYPHIMURIUM, Strain/Indicator: TA1530, Metabolic Activation: MOUSE, LIVER, S-9, Method: STANDARD PLATE",inactive; negative
same,mutagenic call,"Test System: AMES SALMONELLA TYPHIMURIUM, Strain/Indicator: TA1530, Metabolic Activation: NONE, Method: STANDARD PLATE",inactive; negative
same,mutagenic call,"Test System: AMES SALMONELLA TYPHIMURIUM, Strain/Indicator: TA1530, Metabolic Activation: RAT, LIVER, S-9, AROCLOR 1254, Method: STANDARD PLATE",inactive; negative
same,mutagenic call,"Test System: AMES SALMONELLA TYPHIMURIUM, Strain/Indicator: TA1535, Metabolic Activation: MOUSE, LIVER, S-9, AROCLOR 1254, Method: STANDARD PLATE",inactive; negative
same,mutagenic call,"Test System: AMES SALMONELLA TYPHIMURIUM, Strain/Indicator: TA1535, Metabolic Activation: MOUSE, LIVER, S-9, Method: STANDARD PLATE",inactive; negative
same,mutagenic call,[4],inactive; negative
same,mutagenic call,"Test System: AMES SALMONELLA TYPHIMURIUM, Strain/Indicator: TA1535, Metabolic Activation: RAT, LIVER, S-9, AROCLOR 1254, Method: STANDARD PLATE",inactive; negative
same,mutagenic call,"Test System: AMES SALMONELLA TYPHIMURIUM, Strain/Indicator: TA1537, Metabolic Activation: NONE, Method: STANDARD PLATE",inactive; negative
same,mutagenic call,"Test System: AMES SALMONELLA TYPHIMURIUM, Strain/Indicator: TA1537, Metabolic Activation: RAT, LIVER, S-9, AROCLOR 1254, Method: STANDARD PLATE",inactive; negative
same,mutagenic call,"Test System: AMES SALMONELLA TYPHIMURIUM, Strain/Indicator: TA1538, Metabolic Activation: MOUSE, LIVER, S-9, AROCLOR 1254, Method: STANDARD PLATE",inactive; negative
same,mutagenic call,"Test System: AMES SALMONELLA TYPHIMURIUM, Strain/Indicator: TA1538, Metabolic Activation: MOUSE, LIVER, S-9, Method: STANDARD PLATE",inactive; negative
same,mutagenic call,"Test System: AMES SALMONELLA TYPHIMURIUM, Strain/Indicator: TA1538, Metabolic Activation: NONE, Method: STANDARD PLATE",inactive; negative
same,mutagenic call,"Test System: AMES SALMONELLA TYPHIMURIUM, Strain/Indicator: TA1538, Metabolic Activation: RAT, LIVER, S-9, AROCLOR 1254, Method: STANDARD PLATE",inactive; negative
COc1ccc(CCl)cc1,mutagenic call,[3],inactive; negative
Cc1cccc(CN(C)N=O)c1,mutagenic call,"Test System: AMES SALMONELLA TYPHIMURIUM, Strain/Indicator: TA1535, Metabolic Activation: HAMSTER, LIVER, S-9, AROCLOR 1254, Method: STANDARD PLATE",active; positive
same,mutagenic call,[4],inactive; negative
CN(C)CCN(C)C,mutagenic call,"Test System: AMES SALMONELLA TYPHIMURIUM, Strain/Indicator: TA98, Metabolic Activation: HAMSTER, LIVER, S-9, AROCLOR 1254 (10%), Method: PREINCUBATION",inactive; negative
same,mutagenic call,[1],inactive; negative
same,mutagenic call,"Test System: AMES SALMONELLA TYPHIMURIUM, Strain/Indicator: TA98, Metabolic Activation: RAT, LIVER, S-9, AROCLOR 1254 (10%), Method: PREINCUBATION",inactive; negative
same,mutagenic call,"Test System: AMES SALMONELLA TYPHIMURIUM, Strain/Indicator: TA100, Metabolic Activation: HAMSTER, LIVER, S-9, AROCLOR 1254 (10%), Method: PREINCUBATION",inactive; negative
same,mutagenic call,[2],inactive; negative
same,mutagenic call,"Test System: AMES SALMONELLA TYPHIMURIUM, Strain/Indicator: TA100, Metabolic Activation: RAT, LIVER, S-9, AROCLOR 1254 (10%), Method: PREINCUBATION",inactive; negative
same,mutagenic call,"Test System: AMES SALMONELLA TYPHIMURIUM, Strain/Indicator: TA1535, Metabolic Activation: HAMSTER, LIVER, S-9, AROCLOR 1254 (10%), Method: PREINCUBATION",inactive; negative
same,mutagenic call,"Test System: AMES SALMONELLA TYPHIMURIUM, Strain/Indicator: TA1535, Metabolic Activation: NONE, Method: PREINCUBATION",inactive; negative
same,mutagenic call,"Test System: AMES SALMONELLA TYPHIMURIUM, Strain/Indicator: TA1535, Metabolic Activation: RAT, LIVER, S-9, AROCLOR 1254 (10%), Method: PREINCUBATION",inactive; negative
same,mutagenic call,"Test System: AMES SALMONELLA TYPHIMURIUM, Strain/Indicator: TA1537, Metabolic Activation: HAMSTER, LIVER, S-9, AROCLOR 1254 (10%), Method: PREINCUBATION",inactive; negative
same,mutagenic call,"Test System: AMES SALMONELLA TYPHIMURIUM, Strain/Indicator: TA1537, Metabolic Activation: NONE, Method: PREINCUBATION",inactive; negative
same,mutagenic call,"Test System: AMES SALMONELLA TYPHIMURIUM, Strain/Indicator: TA1537, Metabolic Activation: RAT, LIVER, S-9, AROCLOR 1254 (10%), Method: PREINCUBATION",inactive; negative
CN1CCN(N=O)CC1,mutagenic call,"Test System: CHINESE HAMSTER V-79, Strain/Indicator: V-79/8-AZAGUANINE, Metabolic Activation: RAT, LIVER, S-15, PHENOBARBITAL, Method: STANDARD PLATE",active; positive
c1ccc2c(c1)ccc1ccc3ccsc3c12,mutagenic call,"Test System: Ames Salmonella typhimurium, Strain/Indicator: TA98, Metabolic Activation: None, Method: Plate incorporation",active; positive
same,mutagenic call,"Test System: Ames Salmonella typhimurium, Strain/Indicator: TA100, Metabolic Activation: None, Method: Plate incorporation",active; positive
same,mutagenic call,"Test System: Ames Salmonella typhimurium, Strain/Indicator: TA1040, Metabolic Activation: None, Method: Plate incorporation",inactive; negative
